Data: BigSolDB 2.1

O=Cc1cc(Br)c(O)c(Br)c1
solubility (mole fraction)
Settings	278.15 K	283.15 K	288.15 K	293.15 K	298.15 K	303.15 K	308.15 K	313.15 K	318.15 K	323.15 K
in 1,4-dioxane	–	–	0.0128	0.0143	0.0161	0.0183	0.0208	0.0236	0.0266	0.03
in DMF	0.00805	0.00912	0.0104	0.012	0.0137	0.0157	0.0178	0.0201	0.0225	0.0251
in DMSO	–	–	–	0.00895	0.0101	0.0115	0.0132	0.0152	0.0174	0.0203
in acetonitrile	0.002	0.00233	0.00277	0.00328	0.00383	0.00452	0.00531	0.00621	0.00734	0.0086
in cyclohexane	–	0.000245	0.000317	0.000408	0.000513	0.000637	0.000791	0.000965	0.00116	0.00139
in ethanol	0.00281	0.00314	0.00358	0.00413	0.00477	0.00555	0.00646	0.00742	0.00851	0.00974
in ethyl acetate	0.0055	0.00634	0.00729	0.00845	0.0098	0.0114	0.0131	0.015	0.0171	0.0194
in ethylene glycol	0.00234	0.00274	0.00327	0.00397	0.00476	0.00571	0.00675	0.00796	0.00923	0.0107
in isobutanol	0.00368	0.00422	0.0049	0.00569	0.00659	0.00762	0.00878	0.01	0.0115	0.0132
in isopropanol	0.003	0.00343	0.00399	0.00467	0.00542	0.00629	0.00731	0.00841	0.00966	0.011
in methanol	0.00195	0.0022	0.00252	0.00294	0.00341	0.00395	0.00457	0.00526	0.00604	0.00689
in n-butanol	0.00412	0.00466	0.00539	0.00624	0.00726	0.00846	0.0098	0.0112	0.0128	0.0147
in n-octanol	0.00788	0.00908	0.0105	0.0121	0.0139	0.016	0.0184	0.021	0.024	0.0275
in n-pentanol	0.00662	0.00744	0.00859	0.0101	0.0116	0.0135	0.0155	0.0176	0.02	0.0226
in n-propanol	0.00339	0.00379	0.00434	0.00499	0.00579	0.0067	0.00779	0.00897	0.0103	0.0118
in water	4.91e-05	6.34e-05	8.16e-05	0.000103	0.000131	0.000167	0.000213	0.000267	0.000332	0.000406
